Where a name gives a salt, the structure may show the parent alone.
Assay: in vitro
Settings: rat, gh3-tre-luc cells, AC50 (uM) modified / 1000

| SMILES | CC50 at 24 h [µM] |
| --- | --- |
| CCCCCCCC(=O)CC[C@@H]1[C@@H](C/C=C\CCCC(=O)OC(C)C)[C@@H](O)C[C@H]1O [Unoprostone isopropyl ester] | 18 |
| COc1c(C)c2c(c(O)c1C/C=C(\C)CCC(=O)OCCN1CCOCC1)C(=O)OC2 [Mycophenolate mofetil] | 1.07 |
| N#CC(Br)(Br)C(N)=O [2,2-Dibromo-3-nitrilopropionamide] | > 90 |
| c1ccc(-c2nc[nH]c2-c2ccccc2)cc1 [4,5-Diphenylimidazole] | > 50 |
| Clc1ccc(Cl)c(Cl)c1 [1,2,4-Trichlorobenzene] | > 90 |
| CNC(=O)Oc1cccc2c1OC(C)(C)C2 [Carbofuran] | > 90 |
| CC(=O)SCC(CC(=O)c1ccc(C)cc1)C(=O)O (centres unmarked) [Esonarimod] | > 50 |
| O=C(Nc1ccccc1)N(Cc1ccc(Cl)cc1)C1CCCC1 [Pencycuron] | 54.7 |
| CN(C)CCOCCN(C)C [Bis[2-(dimethylamino)ethyl]ether] | > 90 |
| O=C(O)[C@H]1CN(C/C=C/P(=O)(O)O)CCN1 [Midafotel] | > 50 |
| COCCc1ccc(OCC(O)CNC(C)C)cc1 (centres unmarked) [Metoprolol tartrate] | > 50 |
| COc1cc(C(=S)N2CCOCC2)cc(OC)c1OC [Tritiozine] | > 50 |
| CC[C@H]1[C@@H]2C[C@H]3[C@@H]4N(C)c5ccccc5[C@]45C[C@@H]([C@H]2[C@H]5O)N3[C@@H]1O [Ajmaline] | > 20 |
| O=c1[nH][nH]c2ccccc12 [3-Indazolinone] | > 90 |
| C=CC(=O)OCC(COC(=O)C=C)(COC(=O)C=C)COC(=O)C=C [Pentaerythritol tetraacrylate] | 3 |
| CC1(C)CCC(C)(C)c2cc(NC(=O)c3ccc(C(=O)O)cc3)ccc21 [Tamibarotene] | 15.4 |
| CCN(CC)CCNC(=O)COc1ccc(OC)cc1 [Mefexamide hydrochloride] | > 50 |
| CCN(CCCc1ccccc1)CCCc1ccccc1 [Alverine citrate] | > 20 |
| Cc1ncc(CO)c(CO)c1O [Pyridoxine] | > 50 |
| CC1=C(C)C(=O)C(C(CCCCCC(=O)O)c2ccccc2)=C(C)C1=O (racemic) [(+-)-7-(3,5,6-trimethyl-1,4-benzoquinon-2-yl)-7-phenylheptanoic acid] | > 50 |

| SMILES | CC50 at 24 h [µM] |
| --- | --- |
| CC(C)OC(C)C [Isopropyl ether] | > 100 |
| CC(=O)C(Cl)(Cl)Cl [1,1,1-Trichloropropanone] | 13.3 |
| C[C@H]1C[C@H]2[C@@H]3CCC4=CC(=O)C=C[C@]4(C)[C@@]3(F)[C@@H](O)C[C@]2(C)[C@@]1(O)C(=O)CO [Betamethasone] | > 90 |
| CCCCc1oc2ccc(NS(C)(=O)=O)cc2c1C(=O)c1ccc(OCCCN(CCCC)CCCC)cc1 [Dronedarone] | 9.94 |
| CC(C)OC(=O)CCC(=O)OC(C)C [Dipropan-2-yl butanedioate] | > 90 |
| CCCCCC/C=C/C(=O)OC [Methyl (2E)-2-nonenoate] | > 90 |
| CC[C@H]1C[C@H]2[C@@H]3CCC4=CC(=O)CC[C@@H]4[C@H]3CC[C@]2(C)[C@H]1O [Oxendolone] | > 50 |
| CCC(C)(O)CCCC(C)C (centres unmarked) [3,7-Dimethyl-3-octanol] | > 90 |
| CC[N+](C)(C)Cc1ccccc1Br [Bretylium tosylate] | > 20 |
| CC(C)C(=O)Nc1ccc([N+](=O)[O-])c(C(F)(F)F)c1 [Flutamide] | 88.9 |
| Cc1c(COC(=O)[C@@H]2[C@H](/C=C(\Cl)C(F)(F)F)C2(C)C)cccc1-c1ccccc1 (racemic) [Bifenthrin] | > 90 |
| FC(F)(F)c1ccccc1Cl [2-Chlorobenzotrifluoride] | > 90 |
| O=Cc1cc(O)ccc1Br [2-Bromo-5-hydroxy-benzaldehyde] | > 90 |
| CCCCOC(=O)CC#N [Butyl cyanoacetate] | > 100 |
| O=C1[C@@H]2[C@H]3CC[C@H](C3)[C@@H]2C(=O)N1CCCCN1CCN(c2ncccn2)CC1 [Tandospirone] | > 50 |
| CN(C)C(=O)Nc1ccc(Oc2ccc(Cl)cc2)cc1 [Chloroxuron] | > 90 |
| O=C(N[C@@H](c1ccccc1)[C@@H]1CCCCN1)c1cccc(C(F)(F)F)c1Cl [SSR504734] | 19.9 |
| C=C[Si](OCC)(OCC)OCC [Ethenyl(triethoxy)silane] | > 90 |
| Cc1c(NC(C)C)c(=O)n(-c2ccccc2)n1C [Ramifenazone] | > 50 |
| C=C[Si](C)(C=C)O[Si](C)(C)C [Divinyltetramethyldisiloxane] | > 90 |

| SMILES | CC50 at 24 h [µM] |
| --- | --- |
| Cc1ccccc1N1CCN(CCc2nnc3n2CCCC3)CC1 [Dapiprazole hydrochloride] | > 50 |
| C=C(C)C1CC=C(C)C(OC(C)=O)C1 (centres unmarked) [Carvyl acetate] | > 90 |
| CC(C)(C)NCC(O)c1cc(Cl)c(N)c(C(F)(F)F)c1 (centres unmarked) [Mabuterol hydrochloride] | 22.3 |
| O=C(c1ccc(O)cc1)c1ccc(O)c(O)c1O [2,3,4,4'-Tetrahydroxybenzophenone] | > 90 |
| CC(=O)OCC(=O)[C@@]1(O)[C@H](C)C[C@H]2[C@@H]3C[C@H](F)C4=CC(=O)C=C[C@]4(C)[C@H]3[C@@H](O)C[C@@]21C [Paramethasone acetate] | > 50 |
| COc1ccc(-n2nc(C(F)F)cc2-c2ccc([S+](C)[O-])cc2)cc1 (centres unmarked) [Difpas-pyrazole] | > 90 |
| CN/C(=N\c1ccc(C2=NNC(=O)CC2C)cc1)NC#N (centres unmarked) [Siguazodan] | > 50 |
| O=C1CCCN1 [2-Pyrrolidinone] | > 90 |
| Cn1cnc2c(F)c(Nc3ccc(Br)cc3Cl)c(C(=O)NOCCO)cc21 [Selumetinib] | > 50 |
| C=CCc1ccccc1O [2-Allylphenol] | > 90 |
| Nc1ccc2c(O)cc(S(=O)(=O)O)cc2c1 [7-Amino-4-hydroxynaphthalene-2-sulfonic acid] | 89.3 |
| O=C(NC1CCN(CCc2c[nH]c3ccccc23)CC1)c1ccccc1 [Indoramin hydrochloride] | 22.2 |
| COP(=S)(OC)Oc1ccc(SC)c(C)c1 [Fenthion] | > 90 |
| O=C1CCCCCN1 [Caprolactam] | > 90 |
| CCC(=O)Nc1ccc(O)cc1 [Parapropamol] | > 50 |
| CC1(C)CC(N)CC(C)(C)N1 [2,2,6,6-Tetramethylpiperidin-4-amine] | > 90 |
| Cc1ccc(O)c(C(=O)c2ccccc2)c1 [2-Hydroxy-5-methylbenzophenone] | > 90 |
| OCCN1CCOCC1 [4-(2-Hydroxyethyl)morpholine] | > 90 |
| CC[C@@H](C(=O)[C@@H](C)[C@@H](O)[C@H](C)CCc1ccc(C)c(O)c1C(=O)O)[C@H]1O[C@](CC)([C@H]2CC[C@](O)(CC)[C@H](C)O2)C[C@@H]1C [Lasalocid sodium] | 2.85 |
| Cc1ccccc1OCC1CO1 (centres unmarked) [o-Cresyl glycidyl ether] | > 90 |

Same assay, conditions: rat, gh3-tre-luc cells, AC50 (uM) modified / 1000, Tox21_110001=Tox21_111072; viability, 1 nM T3 present, 24 h

| SMILES | CC50 at 24 h [µM] |
| --- | --- |
| CCCCCl [1-Chlorobutane] | > 50 |

Same assay, conditions: rat, gh3-tre-luc cells, AC50 (uM) modified / 1000, Tox21_110001=Tox21_111908; viability, 1 nM T3 present, 24 h

| SMILES | CC50 at 24 h [µM] |
| --- | --- |
| CCCC(=O)OC(C(Cl)(Cl)Cl)P(=O)(OC)OC (centres unmarked) [Butonate] | > 50 |

Same assay, conditions: rat, gh3-tre-luc cells, AC50 (uM) modified / 1000, Tox21_110001=Tox21_113307; viability, 1 nM T3 present, 24 h

| SMILES | CC50 at 24 h [µM] |
| --- | --- |
| CCCOC(=O)Cc1ccc(OCC(=O)N(CC)CC)c(OC)c1 [Propanidid] | > 50 |

Same assay, conditions: rat, gh3-tre-luc cells, AC50 (uM) modified / 1000, Tox21_110001=Tox21_200191; viability, 1 nM T3 present, 24 h

| SMILES | CC50 at 24 h [µM] |
| --- | --- |
| CN(C)c1ccc(N)cc1 [N,N-Dimethyl-p-phenylenediamine] | 59.3 |

Same assay, conditions: rat, gh3-tre-luc cells, AC50 (uM) modified / 1000, Tox21_110001=Tox21_200865; viability, 1 nM T3 present, 24 h

| SMILES | CC50 at 24 h [µM] |
| --- | --- |
| CCCCCl [1-Chlorobutane] | > 90 |

Same assay, conditions: rat, gh3-tre-luc cells, AC50 (uM) modified / 1000, Tox21_110001=Tox21_200899; viability, 1 nM T3 present, 24 h

| SMILES | CC50 at 24 h [µM] |
| --- | --- |
| O=[N+]([O-])C(Br)Br [Dibromonitromethane] | > 90 |

Same assay, conditions: rat, gh3-tre-luc cells, AC50 (uM) modified / 1000, Tox21_110001=Tox21_201140; viability, 1 nM T3 present, 24 h

| SMILES | CC50 at 24 h [µM] |
| --- | --- |
| ClCCCCl [1,3-Dichloropropane] | > 100 |

Same assay, conditions: rat, gh3-tre-luc cells, AC50 (uM) modified / 1000, Tox21_110001=Tox21_201433; viability, 1 nM T3 present, 24 h

| SMILES | CC50 at 24 h [µM] |
| --- | --- |
| O=C(CCl)CCl [1,3-Dichloropropanone] | 32.6 |

Same assay, conditions: rat, gh3-tre-luc cells, AC50 (uM) modified / 1000, Tox21_110001=Tox21_201878; viability, 1 nM T3 present, 24 h

| SMILES | CC50 at 24 h [µM] |
| --- | --- |
| CCC(C)c1cc([N+](=O)[O-])cc([N+](=O)[O-])c1O (centres unmarked) [Dinoseb] | > 90 |

Same assay, conditions: rat, gh3-tre-luc cells, AC50 (uM) modified / 1000, Tox21_110001=Tox21_202132; viability, 1 nM T3 present, 24 h

| SMILES | CC50 at 24 h [µM] |
| --- | --- |
| O=NN1CCOCC1 [N-Nitrosomorpholine] | > 100 |

Same assay, conditions: rat, gh3-tre-luc cells, AC50 (uM) modified / 1000, Tox21_110001=Tox21_202419; viability, 1 nM T3 present, 24 h

| SMILES | CC50 at 24 h [µM] |
| --- | --- |
| Cl/C=C/Cl [(E)-1,2-Dichloroethylene] | > 90 |

Same assay, conditions: rat, gh3-tre-luc cells, AC50 (uM) modified / 1000, Tox21_110001=Tox21_202898; viability, 1 nM T3 present, 24 h

| SMILES | CC50 at 24 h [µM] |
| --- | --- |
| CCCCCON=O [Pentyl nitrite] | > 90 |

Same assay, conditions: rat, gh3-tre-luc cells, AC50 (uM) modified / 1000, Tox21_110001=Tox21_300421; viability, 1 nM T3 present, 24 h

| SMILES | CC50 at 24 h [µM] |
| --- | --- |
| CCC(C)c1cc([N+](=O)[O-])cc([N+](=O)[O-])c1O (centres unmarked) [Dinoseb] | 20.4 |

Same assay, conditions: rat, gh3-tre-luc cells, AC50 (uM) modified / 1000, Tox21_110001=Tox21_301840; viability, 1 nM T3 present, 24 h

| SMILES | CC50 at 24 h [µM] |
| --- | --- |
| CC1C(=O)C[C@]2(C(C)C)C[C@H]12 (single isomer, unassigned; (-)) [(-)-alpha,beta-Thujone] | > 80 |

Same assay, conditions: rat, gh3-tre-luc cells, AC50 (uM) modified / 1000, Tox21_110001=Tox21_302624; viability, 1 nM T3 present, 24 h

| SMILES | CC50 at 24 h [µM] |
| --- | --- |
| CC1CCC(=O)O1 (centres unmarked) [4-Pentanolide] | > 90 |

Same assay, conditions: rat, gh3-tre-luc cells, AC50 (uM) modified / 1000, Tox21_110001=Tox21_302809; viability, 1 nM T3 present, 24 h

| SMILES | CC50 at 24 h [µM] |
| --- | --- |
| O=C(CCl)CCl [1,3-Dichloropropanone] | 27.3 |

Same assay, conditions: rat, gh3-tre-luc cells, AC50 (uM) modified / 1000, Tox21_110001=Tox21_302867; viability, 1 nM T3 present, 24 h

| SMILES | CC50 at 24 h [µM] |
| --- | --- |
| O=NN1CCOCC1 [N-Nitrosomorpholine] | > 90 |
